Assay results from ChEMBL document CHEMBL1154040, “Synthesis and evaluation of novel F-18 labeled fluoroarylvaline derivatives: potential PET imaging agents for tumor detection” (Bioorg Med Chem Lett, 2009).

What was measured:
Blood [1] = experiment: Biodistribution in S180 tumor-bearing KM mouse blood assessed per gram of tissue weight at 240 to 370 kBq, iv after 30 mins; format: ADME, organism-based; details: in vivo, 0.5 h
[2] = Ratio of drug level in S180 tumor to muscleKM mouse at 240 to 370 kBq, iv after 30 mins; format: ADME, organism-based, KM; details: in vivo, 0.5 h
Liver [3] = experiment: Biodistribution in S180 tumor-bearing KM mouse liver assessed per gram of tissue at 240 to 370 kBq, iv after 60 mins; format: ADME, organism-based; details: in vivo, 1 h
[4] = Ratio of drug level in S180 tumor to brain KM mouse at 240 to 370 kBq, iv after 5 mins; format: ADME, organism-based; details: in vivo
[5] = Ratio of drug level in S180 tumor to brain KM mouse at 240 to 370 kBq, iv after 15 mins; format: ADME, organism-based; details: in vivo, 0.25 h
Lung [6] = experiment: Biodistribution in S180 tumor-bearing KM mouse lung assessed per gram of tissue at 240 to 370 kBq, iv after 30 mins; format: ADME, organism-based; details: in vivo, 0.5 h
Muscle tissue [7] = experiment: Biodistribution in S180 tumor-bearing KM mouse muscle assessed per gram of tissue at 240 to 370 kBq, iv after 5 mins; format: ADME, organism-based; details: in vivo
[8] = Biodistribution in S180 tumor present in KM mouse assessed per gram of tissue at 240 to 370 kBq, iv after 15 mins; format: ADME, organism-based, Neoplasm; details: in vivo, 0.25 h
Spleen [9] = experiment: Biodistribution in S180 tumor-bearing KM mouse spleen assessed per gram of tissue at 240 to 370 kBq, iv after 60 mins; format: ADME, organism-based; details: in vivo, 1 h
[10] = Ratio of drug level in S180 tumor to muscleKM mouse at 240 to 370 kBq, iv after 120 mins; format: ADME, organism-based, KM; details: in vivo, 2 h
[11] = Ratio of drug level in S180 tumor to blood in KM mouse at 240 to 370 kBq, iv after 15mins; format: ADME, organism-based; details: tumour, 0.25 h
Spleen [12] = experiment: Biodistribution in S180 tumor-bearing KM mouse spleen assessed per gram of tissue at 240 to 370 kBq, iv after 5 mins; format: ADME, organism-based; details: in vivo
Liver [13] = experiment: Biodistribution in S180 tumor-bearing KM mouse liver assessed per gram of tissue weight at 240 to 370 kBq, iv after 5 mins; format: ADME, organism-based; details: in vivo
[14] = Ratio of drug level in S180 tumor to muscleKM mouse at 240 to 370 kBq, iv after 15 mins; format: ADME, organism-based, KM; details: in vivo, 0.25 h
[15] = Ratio of drug level in S180 tumor to blood in KM mouse at 240 to 370 kBq, iv after 120 mins; format: ADME, organism-based; details: tumour, 2 h
Kidney [16] = experiment: Biodistribution in S180 tumor-bearing KM mouse kidney assessed per gram of tissue at 240 to 370 kBq, iv after 30 mins; format: ADME, organism-based; details: in vivo, 0.5 h
Lung [17] = experiment: Biodistribution in S180 tumor-bearing KM mouse lung assessed per gram of tissue at 240 to 370 kBq, iv after 60 mins; format: ADME, organism-based; details: in vivo, 1 h
Heart [18] = experiment: Biodistribution in S180 tumor-bearing KM mouse heart assessed per gram of tissue weight at 240 to 370 kBq, iv after 15 mins; format: ADME, organism-based; details: in vivo, 0.25 h
Liver [19] = experiment: Biodistribution in S180 tumor-bearing KM mouse liver assessed per gram of tissue at 240 to 370 kBq, iv after 120 mins; format: ADME, organism-based; details: in vivo, 2 h
Brain [20] = experiment: Biodistribution in S180 tumor-bearing KM mouse brain assessed per gram of tissue at 240 to 370 kBq, iv after 120 mins; format: ADME, organism-based; details: in vivo, 2 h
[21] = Ratio of drug level in S180 tumor to blood in KM mouse at 240 to 370 kBq, iv after 60 mins; format: ADME, organism-based; details: tumour, 1 h
Liver [22] = experiment: Biodistribution in S180 tumor-bearing KM mouse liver assessed per gram of tissue at 240 to 370 kBq, iv after 30 mins; format: ADME, organism-based; details: in vivo, 0.5 h
Brain [23] = experiment: Biodistribution in S180 tumor-bearing KM mouse brain assessed per gram of tissue at 240 to 370 kBq, iv after 5 mins; format: ADME, organism-based; details: in vivo
Muscle tissue [24] = experiment: Biodistribution in S180 tumor-bearing KM mouse muscle assessed per gram of tissue at 240 to 370 kBq, iv after 30 mins; format: ADME, organism-based; details: in vivo, 0.5 h
Kidney [25] = experiment: Biodistribution in S180 tumor-bearing KM mouse kidney assessed per gram of tissue at 240 to 370 kBq, iv after 15 mins; format: ADME, organism-based; details: in vivo, 0.25 h
[26] = Biodistribution in S180 tumor present in KM mouse assessed per gram of tissue at 240 to 370 kBq, iv after 120 mins; format: ADME, organism-based, Neoplasm; details: in vivo, 2 h
[27] = Ratio of drug level in S180 tumor to muscleKM mouse at 240 to 370 kBq, iv after 5 mins; format: ADME, organism-based, KM; details: in vivo
Lung [28] = experiment: Biodistribution in S180 tumor-bearing KM mouse lung assessed per gram of tissue at 240 to 370 kBq, iv after 120 mins; format: ADME, organism-based; details: in vivo, 2 h
Muscle tissue [29] = experiment: Biodistribution in S180 tumor-bearing KM mouse muscle assessed per gram of tissue at 240 to 370 kBq, iv after 15 mins; format: ADME, organism-based; details: in vivo, 0.25 h
[30] = Ratio of drug level in S180 tumor to brain KM mouse at 240 to 370 kBq, iv after 60 mins; format: ADME, organism-based; details: in vivo, 1 h
[31] = Ratio of drug level in S180 tumor to blood in KM mouse at 240 to 370 kBq, iv after 5mins; format: ADME, organism-based; details: tumour
Heart [32] = experiment: Biodistribution in S180 tumor-bearing KM mouse heart assessed per gram of tissue weight at 240 to 370 kBq, iv after 30 mins; format: ADME, organism-based; details: in vivo, 0.5 h
Spleen [33] = experiment: Biodistribution in S180 tumor-bearing KM mouse spleen assessed per gram of tissue at 240 to 370 kBq, iv after 120 mins; format: ADME, organism-based; details: in vivo, 2 h
Blood [34] = experiment: Biodistribution in S180 tumor-bearing KM mouse blood assessed per gram of tissue weight at 240 to 370 kBq, iv after 120 mins; format: ADME, organism-based; details: in vivo, 2 h
Liver [35] = experiment: Biodistribution in S180 tumor-bearing KM mouse liver assessed per gram of tissue weight at 240 to 370 kBq, iv after 15 mins; format: ADME, organism-based; details: in vivo, 0.25 h
[36] = Biodistribution in S180 tumor present in KM mouse assessed per gram of tissue at 240 to 370 kBq, iv after 5 mins; format: ADME, organism-based, Neoplasm; details: in vivo
Kidney [37] = experiment: Biodistribution in S180 tumor-bearing KM mouse kidney assessed per gram of tissue at 240 to 370 kBq, iv after 60 mins; format: ADME, organism-based; details: in vivo, 1 h
Heart [38] = experiment: Biodistribution in S180 tumor-bearing KM mouse heart assessed per gram of tissue weight at 240 to 370 kBq, iv after 60 mins; format: ADME, organism-based; details: in vivo, 1 h
Muscle tissue [39] = experiment: Biodistribution in S180 tumor-bearing KM mouse muscle assessed per gram of tissue at 240 to 370 kBq, iv after 120 mins; format: ADME, organism-based; details: in vivo, 2 h
Blood [40] = experiment: Biodistribution in S180 tumor-bearing KM mouse blood assessed per gram of tissue weight at 240 to 370 kBq, iv after 60 mins; format: ADME, organism-based; details: in vivo, 1 h
Spleen [41] = experiment: Biodistribution in S180 tumor-bearing KM mouse spleen assessed per gram of tissue at 240 to 370 kBq, iv after 15 mins; format: ADME, organism-based; details: in vivo, 0.25 h
Lung [42] = experiment: Biodistribution in S180 tumor-bearing KM mouse lung assessed per gram of tissue at 240 to 370 kBq, iv after 5 mins; format: ADME, organism-based; details: in vivo
[43] = Ratio of drug level in S180 tumor to brain KM mouse at 240 to 370 kBq, iv after 30 mins; format: ADME, organism-based; details: in vivo, 0.5 h

COC(=O)[C@@H](NC(=O)c1ccc([N+](=O)[O-])cc1[18F])C(C)C
Drug uptake (Blood [1]): 0.68 %ID
tumor/muscle ratio [2]: 2.41
Drug uptake (Liver [3]): 0.27 %ID
tumor/brain ratio [4]: 2.79
tumor/brain ratio [5]: 3.42
Drug uptake (Lung [6]): 1.31 %ID
Drug uptake (Muscle tissue [7]): 1.43 %ID
Drug uptake [8]: 2.06 %ID
Drug uptake (Spleen [9]): 0.31 %ID
tumor/muscle ratio [10]: 0.54
tumor/blood ratio [11]: 0.94
Drug uptake (Spleen [12]): 1.48 %ID
Drug uptake (Liver [13]): 15.9 %ID
tumor/muscle ratio [14]: 1.48
tumor/blood ratio [15]: 1.67
Drug uptake (Kidney [16]): 3.8 %ID
Drug uptake (Lung [17]): 0.31 %ID
Drug uptake (Heart [18]): 0.6 %ID
Drug uptake (Liver [19]): 0.14 %ID
Drug uptake (Brain [20]): 0.12 %ID
tumor/blood ratio [21]: 3.44
Drug uptake (Liver [22]): 3.66 %ID
Drug uptake (Brain [23]): 0.99 %ID
Drug uptake (Muscle tissue [24]): 0.82 %ID
Drug uptake (Kidney [25]): 11.28 %ID
Drug uptake [26]: 0.31 %ID
tumor/muscle ratio [27]: 1.94
Drug uptake (Lung [28]): 0.25 %ID
Drug uptake (Muscle tissue [29]): 1.39 %ID
tumor/brain ratio [30]: 5.61
tumor/blood ratio [31]: 0.9
Drug uptake (Heart [32]): 0.4 %ID
Drug uptake (Spleen [33]): 0.05 %ID
Drug uptake (Blood [34]): 0.19 %ID
Drug uptake (Liver [35]): 8.6 %ID
Drug uptake [36]: 2.78 %ID
Drug uptake (Kidney [37]): 0.35 %ID
Drug uptake (Heart [38]): 0.19 %ID
Drug uptake (Muscle tissue [39]): 0.58 %ID
Drug uptake (Blood [40]): 0.28 %ID
Drug uptake (Spleen [41]): 1.13 %ID
Drug uptake (Lung [42]): 5.49 %ID
tumor/brain ratio [43]: 7.06

OC[C@H]1O[C@@H](O)[C@H]([18F])[C@@H](O)[C@@H]1O [FLUDEOXYGLUCOSE-F18]
Drug uptake (Blood [1]): 0.16 %ID
tumor/muscle ratio [2]: 1.75
Drug uptake (Liver [3]): 0.22 %ID
tumor/brain ratio [4]: 0.53
tumor/brain ratio [5]: 0.59
Drug uptake (Lung [6]): 0.64 %ID
Drug uptake (Muscle tissue [7]): 1.56 %ID
Drug uptake [8]: 1.56 %ID
Drug uptake (Spleen [9]): 0.83 %ID
tumor/muscle ratio [10]: 2.2
tumor/blood ratio [11]: 3.42
Drug uptake (Spleen [12]): 1.31 %ID
Drug uptake (Liver [13]): 1.35 %ID
tumor/muscle ratio [14]: 1.37
tumor/blood ratio [15]: 15.8
Drug uptake (Kidney [16]): 0.61 %ID
Drug uptake (Lung [17]): 0.57 %ID
Drug uptake (Heart [18]): 2.5 %ID
Drug uptake (Liver [19]): 0.2 %ID
Drug uptake (Brain [20]): 1.28 %ID
tumor/blood ratio [21]: 19.5
Drug uptake (Liver [22]): 0.23 %ID
Drug uptake (Brain [23]): 2.4 %ID
Drug uptake (Muscle tissue [24]): 1.07 %ID
Drug uptake (Kidney [25]): 1.04 %ID
Drug uptake [26]: 1.7 %ID
tumor/muscle ratio [27]: 0.81
Drug uptake (Lung [28]): 0.52 %ID
Drug uptake (Muscle tissue [29]): 1.14 %ID
tumor/brain ratio [30]: 1.02
tumor/blood ratio [31]: 1.17
Drug uptake (Heart [32]): 2.69 %ID
Drug uptake (Spleen [33]): 0.78 %ID
Drug uptake (Blood [34]): 0.11 %ID
Drug uptake (Liver [35]): 0.47 %ID
Drug uptake [36]: 1.27 %ID
Drug uptake (Kidney [37]): 0.54 %ID
Drug uptake (Heart [38]): 3.24 %ID
Drug uptake (Muscle tissue [39]): 0.78 %ID
Drug uptake (Blood [40]): 0.11 %ID
Drug uptake (Spleen [41]): 0.95 %ID
Drug uptake (Lung [42]): 1.52 %ID
tumor/brain ratio [43]: 0.61
